Measurements reported in the NIST ThermoML archive (doi:10.1021/je030147g).

Columns and labels:
[1] = 101.33 kPa, Liquid
[2] = refractive index (Na D-line) (dimensionless); conditions: 101.33 kPa, Liquid
[3] = xn = mol fraction of the nth substance listed; conditions: 101.33 kPa, Liquid
[4] = refractive index (Na D-line) (dimensionless); xn = mol fraction of the nth substance listed; conditions: 101.33 kPa, Liquid

CCN(CC)CC [triethylamine]
Conditions | mass density, 298.15 K [kg/m3] | mass density, 303.15 K [kg/m3] | mass density, 308.15 K [kg/m3] | refractive index, 298.15 K | refractive index, 303.15 K | refractive index, 308.15 K | speed of sound, 298.15 K [m/s] | viscosity, 298.15 K [mPa·s] | viscosity, 303.15 K [mPa·s] | viscosity, 308.15 K [mPa·s]
[1] | 723.3 | 718.6 | 713.7 | – | – | – | 1123 | 0.367 | 0.349 | 0.332
[2] | – | – | – | 1.3992 | 1.3958 | 1.3929 | – | – | – | –

ClC(Cl)=C(Cl)Cl [tetrachloroethene]
Conditions | mass density, 298.15 K [kg/m3] | mass density, 303.15 K [kg/m3] | mass density, 308.15 K [kg/m3] | refractive index, 298.15 K | refractive index, 303.15 K | refractive index, 308.15 K | speed of sound, 298.15 K [m/s] | viscosity, 298.15 K [mPa·s] | viscosity, 303.15 K [mPa·s] | viscosity, 308.15 K [mPa·s]
[1] | 1616 | 1607.5 | 1597.5 | – | – | – | 1033 | 0.875 | 0.831 | 0.791
[2] | – | – | – | 1.5036 | 1.5005 | 1.4978 | – | – | – | –

CCCCCCCCCCCCCC [tetradecane]
Conditions | mass density, 298.15 K [kg/m3] | mass density, 303.15 K [kg/m3] | mass density, 308.15 K [kg/m3] | refractive index, 298.15 K | refractive index, 303.15 K | refractive index, 308.15 K | speed of sound, 298.15 K [m/s] | viscosity, 298.15 K [mPa·s] | viscosity, 303.15 K [mPa·s] | viscosity, 308.15 K [mPa·s]
[1] | 760.7 | 757 | 753.3 | – | – | – | 1315 | 2.032 | 1.827 | 1.653
[2] | – | – | – | 1.4282 | 1.426 | 1.4236 | – | – | – | –

CCCCN(CCCC)CCCC [tributylamine] + CCN(CC)CC
Conditions | mass density, 298.15 K [kg/m3] | mass density, 303.15 K [kg/m3] | mass density, 308.15 K [kg/m3] | refractive index, 298.15 K | refractive index, 303.15 K | refractive index, 308.15 K | speed of sound, 298.15 K [m/s] | viscosity, 298.15 K [mPa·s] | viscosity, 303.15 K [mPa·s] | viscosity, 308.15 K [mPa·s]
[3], x1 = 0.1072 | 732 | 727.3 | 722.8 | – | – | – | 1143 | 0.433 | 0.411 | 0.388
[3], x1 = 0.2039 | 739.2 | 734.6 | 730.2 | – | – | – | 1160 | 0.491 | 0.464 | 0.438
[3], x1 = 0.3083 | 745.9 | 741.4 | 737.1 | – | – | – | 1179 | 0.567 | 0.533 | 0.499
[3], x1 = 0.4066 | 751.5 | 747.2 | 742.9 | – | – | – | 1196 | 0.643 | 0.602 | 0.561
[3], x1 = 0.5029 | 756.4 | 752.2 | 747.9 | – | – | – | 1210 | 0.719 | 0.672 | 0.625
[3], x1 = 0.5905 | 760.2 | 756 | 751.8 | – | – | – | 1221 | 0.801 | 0.746 | 0.688
[3], x1 = 0.6928 | 763.7 | 759.5 | 755.4 | – | – | – | 1232 | 0.899 | 0.833 | 0.767
[3], x1 = 0.7914 | 767.1 | 763 | 758.9 | – | – | – | 1236 | 1.003 | 0.923 | 0.844
[3], x1 = 0.8942 | 770.6 | 766.5 | 762.4 | – | – | – | 1246 | 1.118 | 1.026 | 0.934
[3], x1 = 1 | 773.9 | 769.2 | 765.7 | – | – | – | 1262 | 1.239 | 1.123 | 1.028
[4], x1 = 0.1072 | – | – | – | 1.4052 | 1.4031 | 1.4012 | – | – | – | –
[4], x1 = 0.2039 | – | – | – | 1.4104 | 1.4079 | 1.4054 | – | – | – | –
[4], x1 = 0.3083 | – | – | – | 1.4131 | 1.4116 | 1.4102 | – | – | – | –
[4], x1 = 0.4066 | – | – | – | 1.4164 | 1.4144 | 1.4122 | – | – | – | –
[4], x1 = 0.5029 | – | – | – | 1.4208 | 1.4178 | 1.4148 | – | – | – | –
[4], x1 = 0.5905 | – | – | – | 1.4218 | 1.4194 | 1.4169 | – | – | – | –
[4], x1 = 0.6928 | – | – | – | 1.4238 | 1.4213 | 1.4189 | – | – | – | –
[4], x1 = 0.7914 | – | – | – | 1.4256 | 1.423 | 1.4204 | – | – | – | –
[4], x1 = 0.8942 | – | – | – | 1.4265 | 1.4241 | 1.4217 | – | – | – | –
[4], x1 = 1 | – | – | – | 1.4276 | 1.4255 | 1.4228 | – | – | – | –
